Measured values: US20250032651A1, “[177LU] LUTETIUM-PSMA I&T COMPOSITION AND DOSIMETRY, KIT, METHOD OF MAKING, AND METHOD OF USING THEREOF” (Curium US LLC, priority 2022, published 2025)

Assay: Normal organ dosimetry Cycle 1: SPECT/CT, TIACs, OLINDA 2.2.3 absorbed radiation dose
Format: in vivo, human
Conditions: for Absorbed Dose, min / Absorbed Dose, Mean / Absorbed Dose, max / Absorbed Dose, median: Cycle 1
Procedure: This Example presents the biodistribution, dosimetry, and pharmacokinetics (PK) results of a PK/Dosimetry sub-study performed as part of a Phase III trial. Twenty-seven (27) patients were administered a target activity of 7.4±10% GBq of ^177Lu-PSMA-I&T and underwent single photon emission computed tomography (SPECT)/computed tomography (CT) imaging at four timepoints (4 h, 24 h, 48 h, and 168 h). Image data was analysed to compute time-activity curves (TACs) and subsequently time-integrated activity coefficients (TIACs) in each organ of interest and in organs showing appreciable and meaningful ^177Lu-PSMA-I&T activity. Organ Level Internal Dose Assessment (OLINDA 2.2.3) was used to compute organ and whole body absorbed radiation doses for each patient.
All participating sites underwent a rigorous site setup process during which all dose calibrators, scanners, and gamma counters used in the sub-study were calibrated. Sites were allowed to enroll patients in the sub-study only after the completion and approval of all site setup processes by Invicro. Patients underwent SPECT/CT imaging, with anatomical coverage typically extending from the salivary glands to the pelvis, following the administration of a targeted 7.4±10% GBq of ^177Lu-PSMA-I&T at cycle 1. SPECT/CT imaging was performed at four timepoints: 4 h, 24 h, 48 h, and 168 h post-injection. Additionally, a subset of patients imaged at Cycle 1 (16 out of 27), were also imaged at Cycle 3 (Table 2).
The imaging data was analyzed using Invicro's VivoQuant software, a validated software used in a 21 CFR § 11-compliant workflow. The general quantification approach was based on the principles detailed in the Medical Internal Radiation Dose (MIRD) Pamphlet No. 16, No 23, and No 26 as appropriate.
Volume of interest (VOI) (kidneys, bladder, liver, lumbar vertebrae L2-L4, lacrimal glands, salivary glands [parotid and submandibular glands], and whole body) were delineated on each dataset by a trained image analyst. […] Organs were segmented either by drawing the entire contour of the organ, or by placing a sphere in a representative region of the organ and then multiplying by the organ's effective mass (based on patient's height and weight). Segmentation methods for each organ are specified in Table 3 and were consistently applied to each patient.
Clearance of the radiopharmaceutical was derived from a data-appropriate fit of each organ's TAC. Depending on the TAC's shape, the data was fitted with the sum of one, two, or three exponentials, or using a rise and fall model. Fitting was performed with in-house Python software. TIACs were calculated through analytical integration of the curve fit extrapolated to infinity. […] A whole-body TAC was derived from delineating the imaged body. The remainder activity was determined by subtracting the cumulative organ TIACs from the whole body TIAC.
Organ TIACs were input into OLINDA 2.2.3 for the computation of organ and whole-body absorbed doses, using International Commission on Radiological Protection (ICRP)-103 weighing factors. The ICRP-89 derived male phantom was used for dose estimation. Organs and body mass as defined by ICRP-89 were scaled based on height and mass using patient effective mass.^4 The voiding bladder model as implemented in OLINDA was used to determine bladder TIAC, assuming a voiding interval of 4 hours. The human alimentary tract model (HAT model) described in ICRP 100 and implemented in OLINDA was used to compute doses to the small intestine, right colon, left colon and rectum for patients showing clearance through the GI tract. The fraction of injected activity (fIA) cleared via the GI tract was determined by taking the peak fIA in the GI tract over all the imaging timepoints. […] The Red Marrow mass in L2-L4 was assumed to be 6.7% of the total red marrow mass.

[1] = Prostate, 16 patients imaged at cycle 1 and 3
[2] = Rectum, 16 patients imaged at cycle 1 and 3
[3] = Red Marrow, 16 patients imaged at cycle 1 and 3
[4] = Right Colon, 16 patients imaged at cycle 1 and 3
[5] = Salivary Glands, 16 patients imaged at cycle 1 and 3
[6] = Salivary Glands, n = 26, patient 12-004 excluded
[7] = Small intestine, 16 patients imaged at cycle 1 and 3
[8] = Spleen, 16 patients imaged at cycle 1 and 3
[9] = Stomach Wall, 16 patients imaged at cycle 1 and 3
[10] = Testes, 16 patients imaged at cycle 1 and 3
[11] = Thymus, 16 patients imaged at cycle 1 and 3
[12] = Thyroid, 16 patients imaged at cycle 1 and 3
[13] = Total Body, 16 patients imaged at cycle 1 and 3
[14] = Urinary Bladder wall, 16 patients imaged at cycle 1 and 3

O=C([O-])CC[C@H](NC(=O)N[C@@H](CCCCNC(=O)CCCCCCC(=O)NCCCC[C@@H](NC(=O)[C@@H](Cc1ccccc1)NC(=O)[C@@H](Cc1ccc(O)c(I)c1)NC(=O)CC[C@H](C(=O)[O-])N1CCN(CC(=O)[O-])CCN(CC(=O)[O-])CCN(CC(=O)[O-])CC1)C(=O)[O-])C(=O)[O-])C(=O)[O-].[177Lu+3].[H+].[H+].[H+].[H+].[H+] [^177Lu-PSMA I&T, (3S,7S,26R,29R,32R,37R)-29-benzyl-32-(4-hydroxy-3-iodobenzyl)-5,13,20,28,31,34-hexaoxo-37-(4,7,10-tris(carboxymethyl)-1,4,7,10-tetraazacyclododecan-1-yl)-4,6,12,21,27,30,33-heptaazaheptatriacontane-1,3,7,26,37-pentacarboxylic acid; lutetium-177 (III)]
0.04 Gy/GBq: Absorbed Dose, median (Small intestine, n = 26)
0.05 Gy/GBq: Absorbed Dose in Cycle 1, Mean [3] | Absorbed Dose in Cycle 1, Mean (Red Marrow, N = 16) | Absorbed Dose, Mean (Small intestine, n = 26)
0.15 Gy/GBq: Absorbed Dose, median [6] | Absorbed Dose in Cycle 1, max [7] | Absorbed Dose, max (Small intestine, n = 26) | Absorbed Dose in Cycle 1, max (Small intestine, N = 16)
0.25 Gy/GBq: Absorbed Dose, Mean (Right Colon, n = 26)
0.33 Gy/GBq: Absorbed Dose in Cycle 1, min [14] | Absorbed Dose, min (Urinary Bladder wall, n = 26) | Absorbed Dose in Cycle 1, min (Urinary Bladder wall, N = 16)
0.50 Gy/GBq: Absorbed Dose in Cycle 1, Mean [2] | Absorbed Dose in Cycle 1, Mean (Rectum, N = 16) | Absorbed Dose, max (Urinary Bladder wall, n = 26)
0.49 Gy/GBq: Absorbed Dose, max (Red Marrow, n = 26)
0.28 Gy/GBq: Absorbed Dose in Cycle 1, max [3] | Absorbed Dose in Cycle 1, max (Red Marrow, N = 16) | Absorbed Dose in Cycle 1, Mean [4] | Absorbed Dose in Cycle 1, Mean (Right Colon, N = 16)
0.40 Gy/GBq: Absorbed Dose in Cycle 1, Mean [14]
1.46 Gy/GBq: Absorbed Dose in Cycle 1, max [2] | Absorbed Dose, max (Rectum, n = 26) | Absorbed Dose in Cycle 1, max (Rectum, N = 16)
0.41 Gy/GBq: Absorbed Dose, Mean (Urinary Bladder wall, n = 26) | Absorbed Dose, median (Urinary Bladder wall, n = 26)
0.09 Gy/GBq: Absorbed Dose in Cycle 1, max [13] | Absorbed Dose, max (Total Body, n = 26) | Absorbed Dose in Cycle 1, max (Total Body, N = 16)
0.17 Gy/GBq: Absorbed Dose in Cycle 1, Mean [5] | Absorbed Dose in Cycle 1, Mean (Salivary Glands, N = 16)
0.82 Gy/GBq: Absorbed Dose in Cycle 1, max [4] | Absorbed Dose, max (Right Colon, n = 26) | Absorbed Dose in Cycle 1, max (Right Colon, N = 16)
0.44 Gy/GBq: Absorbed Dose, Mean (Rectum, n = 26)
0.19 Gy/GBq: Absorbed Dose, Mean [6]
0.01 Gy/GBq: Absorbed Dose in Cycle 1, min [1] | Absorbed Dose, median (Prostate, n = 26) | Absorbed Dose, min (Prostate, n = 26) | Absorbed Dose in Cycle 1, min (Prostate, N = 16) | Absorbed Dose in Cycle 1, min [2] | Absorbed Dose, min (Rectum, n = 26) | Absorbed Dose in Cycle 1, min (Rectum, N = 16) | Absorbed Dose in Cycle 1, min [4] | Absorbed Dose, min (Right Colon, n = 26) | Absorbed Dose in Cycle 1, min (Right Colon, N = 16) | Absorbed Dose in Cycle 1, min [7] | Absorbed Dose, min (Small intestine, n = 26) | Absorbed Dose in Cycle 1, min (Small intestine, N = 16) | Absorbed Dose in Cycle 1, min [8] | Absorbed Dose, min (Spleen, n = 26) | Absorbed Dose in Cycle 1, min (Spleen, N = 16) | Absorbed Dose, median (Stomach Wall, n = 26) | Absorbed Dose in Cycle 1, Mean [10] | Absorbed Dose, Mean (Testes, n = 26) | Absorbed Dose, median (Testes, n = 26) | Absorbed Dose in Cycle 1, Mean (Testes, N = 16) | Absorbed Dose in Cycle 1, Mean [11] | Absorbed Dose, Mean (Thymus, n = 26) | Absorbed Dose, median (Thymus, n = 26) | Absorbed Dose in Cycle 1, Mean (Thymus, N = 16) | Absorbed Dose in Cycle 1, Mean [12] | Absorbed Dose, Mean (Thyroid, n = 26) | Absorbed Dose, median (Thyroid, n = 26) | Absorbed Dose in Cycle 1, Mean (Thyroid, N = 16) | Absorbed Dose in Cycle 1, min [13] | Absorbed Dose, min (Total Body, n = 26) | Absorbed Dose in Cycle 1, min (Total Body, N = 16)
0.22 Gy/GBq: Absorbed Dose, median (Right Colon, n = 26)
0.07 Gy/GBq: Absorbed Dose in Cycle 1, max (Pancreas, N = 16) | Absorbed Dose in Cycle 1, max [1] | Absorbed Dose, max (Prostate, n = 26) | Absorbed Dose in Cycle 1, max (Prostate, N = 16) | Absorbed Dose in Cycle 1, max [9] | Absorbed Dose, max (Stomach Wall, n = 26) | Absorbed Dose in Cycle 1, max (Stomach Wall, N = 16) | Absorbed Dose in Cycle 1, max [10] | Absorbed Dose, max (Testes, n = 26) | Absorbed Dose in Cycle 1, max (Testes, N = 16) | Absorbed Dose in Cycle 1, max [11] | Absorbed Dose, max (Thymus, n = 26) | Absorbed Dose in Cycle 1, max (Thymus, N = 16) | Absorbed Dose in Cycle 1, max [12] | Absorbed Dose, max (Thyroid, n = 26) | Absorbed Dose in Cycle 1, max (Thyroid, N = 16)
0.06 Gy/GBq: Absorbed Dose in Cycle 1, Mean [7] | Absorbed Dose in Cycle 1, Mean (Small intestine, N = 16)
0.08 Gy/GBq: Absorbed Dose, Mean (Red Marrow, n = 26)
10.40 Gy/GBq: Absorbed Dose in Cycle 1, Mean (Urinary Bladder wall, N = 16)
0.11 Gy/GBq: Absorbed Dose in Cycle 1, max [8] | Absorbed Dose, max (Spleen, n = 26) | Absorbed Dose in Cycle 1, max (Spleen, N = 16)
0.39 Gy/GBq: Absorbed Dose, median (Rectum, n = 26)
0.03 Gy/GBq: Absorbed Dose, median (Red Marrow, n = 26) | Absorbed Dose in Cycle 1, min [5] | Absorbed Dose, min [6] | Absorbed Dose in Cycle 1, min (Salivary Glands, N = 16) | Absorbed Dose in Cycle 1, Mean [8] | Absorbed Dose, Mean (Spleen, n = 26) | Absorbed Dose in Cycle 1, Mean (Spleen, N = 16)
0.00 Gy/GBq: Absorbed Dose, min (Pancreas, n = 26) | Absorbed Dose in Cycle 1, min (Pancreas, N = 16) | Absorbed Dose in Cycle 1, min [3] | Absorbed Dose, min (Red Marrow, n = 26) | Absorbed Dose in Cycle 1, min (Red Marrow, N = 16) | Absorbed Dose in Cycle 1, min [9] | Absorbed Dose, min (Stomach Wall, n = 26) | Absorbed Dose in Cycle 1, min (Stomach Wall, N = 16) | Absorbed Dose in Cycle 1, min [10] | Absorbed Dose, min (Testes, n = 26) | Absorbed Dose in Cycle 1, min (Testes, N = 16) | Absorbed Dose in Cycle 1, min [11] | Absorbed Dose, min (Thymus, n = 26) | Absorbed Dose in Cycle 1, min (Thymus, N = 16) | Absorbed Dose in Cycle 1, min [12] | Absorbed Dose, min (Thyroid, n = 26) | Absorbed Dose in Cycle 1, min (Thyroid, N = 16)
0.80 Gy/GBq: Absorbed Dose in Cycle 1, max [5] | Absorbed Dose, max [6] | Absorbed Dose in Cycle 1, max (Salivary Glands, N = 16)
0.02 Gy/GBq: Absorbed Dose in Cycle 1, Mean (Pancreas, N = 16) | Absorbed Dose in Cycle 1, Mean [1] | Absorbed Dose, Mean (Prostate, n = 26) | Absorbed Dose in Cycle 1, Mean (Prostate, N = 16) | Absorbed Dose, median (Spleen, n = 26) | Absorbed Dose in Cycle 1, Mean [9] | Absorbed Dose, Mean (Stomach Wall, n = 26) | Absorbed Dose in Cycle 1, Mean (Stomach Wall, N = 16) | Absorbed Dose in Cycle 1, Mean [13] | Absorbed Dose, Mean (Total Body, n = 26) | Absorbed Dose, median (Total Body, n = 26) | Absorbed Dose in Cycle 1, Mean (Total Body, N = 16)
0.47 Gy/GBq: Absorbed Dose in Cycle 1, max [14] | Absorbed Dose in Cycle 1, max (Urinary Bladder wall, N = 16)
